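Exposure lasted 48 hours, with cells grown in 96-well plates and compounds tested at five concentrations. At the GI50, growth is halved.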 The source made the active and inactive calls. No stated cut-off is given here; in the data, active = GI50 up to about 1.1 µM and inactive = higher.
Tests used:
Assay in all cases: NCI anticancer screen, dose series, 48 h
[1] = tested on: OVCAR-5
[2] = tested on: NCI-H522
[3] = tested on: OVCAR-4
[4] = tested on: OVCAR-3
[5] = tested on: M14
[6] = tested on: COLO 205
[7] = tested on: CAKI-1
[8] = tested on: SK-MEL-2
[9] = tested on: HCT-116
[10] = tested on: SNB-19
[11] = tested on: SF-539
[12] = tested on: UO-31
[13] = tested on: RPMI-8226
[14] = tested on: Malme-3M
[15] = tested on: ACHN
[16] = tested on: HT-29

| Compound | GI50 [1] | GI50 [2] | GI50 [3] | GI50 [4] | GI50 [5] | GI50 [6] | GI50 [7] | GI50 [8] | GI50 [9] | GI50 [10] | GI50 [11] | GI50 [12] | GI50 [13] | GI50 [14] | GI50 [15] | GI50 [16] |
| --- | --- | --- | --- | --- | --- | --- | --- | --- | --- | --- | --- | --- | --- | --- | --- | --- |
| COc1cc2c(cc1O)C=NCC2 | > 100 µM (inactive) | > 100 µM (inactive) | > 100 µM (inactive) | 78.5 µM (inactive) | > 100 µM (inactive) | 65.8 µM (inactive) | > 100 µM (inactive) | > 100 µM (inactive) | > 100 µM (inactive) | > 100 µM (inactive) | > 100 µM (inactive) | > 100 µM (inactive) | > 100 µM (inactive) | > 100 µM (inactive) | > 100 µM (inactive) |  |
| CCCC1C[C@H]2CCCCN2[C@H]2CCCN12 (some centres not stated) | > 100 µM (inactive) | > 100 µM (inactive) | > 100 µM (inactive) | > 100 µM (inactive) | > 100 µM (inactive) | > 47.4 µM (inactive) | > 100 µM (inactive) | > 100 µM (inactive) | > 45.2 µM (inactive) | > 100 µM (inactive) | > 100 µM (inactive) | > 100 µM (inactive) | > 43.4 µM (inactive) | > 100 µM (inactive) | > 100 µM (inactive) | > 100 µM (inactive) |
| CC(C)C(=O)/C=C/c1ccc(Cl)cc1 | 20.2 µM (inactive) | 11 µM (inactive) | 12.9 µM (inactive) | 14.4 µM (inactive) | 17.1 µM (inactive) | 28.2 µM (inactive) |  | 19.4 µM (inactive) | 2.67 µM (inactive) | 13.4 µM (inactive) | 10.4 µM (inactive) | 12.2 µM (inactive) | 5.37 µM (inactive) |  | 11.2 µM (inactive) | 14.1 µM (inactive) |
| CC1=C(C(=O)Nc2cc(F)c(F)cc2F)C(c2cccc([N+](=O)[O-])c2)C(C(=O)Nc2ccccc2C(F)(F)F)=C(C)N1 (configuration not stated) | 17.9 µM (inactive) | 13.8 µM (inactive) | 18.1 µM (inactive) | 16.8 µM (inactive) | 22.8 µM (inactive) | 28.7 µM (inactive) | 15.8 µM (inactive) | 18 µM (inactive) |  | 30.7 µM (inactive) | 20.7 µM (inactive) | 12.3 µM (inactive) | 13 µM (inactive) | 25.4 µM (inactive) | 21.1 µM (inactive) | 26.7 µM (inactive) |
| CCCCCCCCCCCCCCCc1nnc(SCC(=O)O)[nH]1 |  | 41.6 µM (inactive) | 45.7 µM (inactive) | > 100 µM (inactive) | 19.3 µM (inactive) |  | 63.2 µM (inactive) | 37.9 µM (inactive) | 92.7 µM (inactive) | 49.7 µM (inactive) | 48 µM (inactive) | 49.9 µM (inactive) | 78.2 µM (inactive) | > 100 µM (inactive) | 47.3 µM (inactive) | 31.7 µM (inactive) |
| Nc1cccc(S(=O)(=O)NCC(=O)O)c1 | > 100 µM (inactive) | > 100 µM (inactive) | > 100 µM (inactive) | > 100 µM (inactive) | > 100 µM (inactive) | > 100 µM (inactive) | > 100 µM (inactive) | > 100 µM (inactive) | > 100 µM (inactive) | > 100 µM (inactive) | > 100 µM (inactive) | 73.5 µM (inactive) | > 100 µM (inactive) | > 100 µM (inactive) | > 100 µM (inactive) | > 100 µM (inactive) |
| COc1cccc(NC(=O)CSc2nnc(-c3ccc(NC(C)=O)cc3)o2)c1 | 83.2 µM (inactive) | > 100 µM (inactive) | > 100 µM (inactive) | > 100 µM (inactive) | > 100 µM (inactive) | > 100 µM (inactive) | > 100 µM (inactive) | > 100 µM (inactive) | > 100 µM (inactive) |  |  | 80.4 µM (inactive) | > 100 µM (inactive) | > 100 µM (inactive) | > 100 µM (inactive) | 39.6 µM (inactive) |
| COc1cc(C2c3cc4c(cc3[C@@H](N(C)c3ccc(N(C)C)cc3)C3COC(=O)C23)OCO4)cc(OC)c1O (some centres not stated) | 3.42 µM (inactive) | 0.0589 µM (active) | 9.57 µM (inactive) | 0.213 µM (active) | 0.305 µM (active) | 0.479 µM (active) | 0.491 µM (active) | 0.33 µM (active) | 0.399 µM (active) | 2.15 µM (inactive) | 0.255 µM (active) | 0.964 µM (active) | 0.923 µM (active) |  | 0.774 µM (active) | 0.269 µM (active) |
| CC(=O)C1Cn2c(=O)c3cc4ccccc4cc3c(=O)n2C=C1C (configuration not stated) | > 100 µM (inactive) | > 100 µM (inactive) | > 100 µM (inactive) | > 100 µM (inactive) | > 100 µM (inactive) | > 100 µM (inactive) | > 100 µM (inactive) | > 100 µM (inactive) | > 100 µM (inactive) | > 100 µM (inactive) | > 100 µM (inactive) | > 100 µM (inactive) | > 100 µM (inactive) | > 100 µM (inactive) | > 100 µM (inactive) |  |
| CCOP1(=O)C=CC(Cl)=C(C)C1 (configuration not stated) | 24.2 µM (inactive) | 4.04 µM (inactive) | 16.4 µM (inactive) | 19.9 µM (inactive) | 14.7 µM (inactive) | 19.1 µM (inactive) | 10.5 µM (inactive) | 12.9 µM (inactive) | 5.58 µM (inactive) | 67.5 µM (inactive) | 17.8 µM (inactive) | 25.6 µM (inactive) | 6.82 µM (inactive) | 14.3 µM (inactive) | 8.63 µM (inactive) | 13.2 µM (inactive) |
| CC(=O)c1ccc2c(ccc(=O)n2C)c1 | > 100 µM (inactive) | 56.2 µM (inactive) | > 100 µM (inactive) | > 100 µM (inactive) | > 100 µM (inactive) | > 100 µM (inactive) | > 100 µM (inactive) | > 100 µM (inactive) | > 100 µM (inactive) | > 100 µM (inactive) | > 100 µM (inactive) |  | > 100 µM (inactive) | > 100 µM (inactive) |  | > 100 µM (inactive) |
| CCN(c1ccccc1)[C@H]1C(=O)N(c2ccc([N+](=O)[O-])cc2)[C@H]1c1ccc(OC)cc1 | > 100 µM (inactive) | 63.5 µM (inactive) |  | > 100 µM (inactive) |  | 38 µM (inactive) | 73.3 µM (inactive) | > 100 µM (inactive) | > 100 µM (inactive) | > 100 µM (inactive) | 35.2 µM (inactive) | > 100 µM (inactive) | > 100 µM (inactive) | > 100 µM (inactive) | > 100 µM (inactive) | > 100 µM (inactive) |
| CC1(O)CCC2(C)C(=O)C1(C)CCC21OCCO1 (configuration not stated) | > 100 µM (inactive) | > 100 µM (inactive) |  | > 100 µM (inactive) | > 100 µM (inactive) | > 100 µM (inactive) |  | > 100 µM (inactive) |  | > 100 µM (inactive) | > 100 µM (inactive) | > 100 µM (inactive) | > 100 µM (inactive) | > 100 µM (inactive) | > 100 µM (inactive) | > 100 µM (inactive) |
| NC(=O)c1c[se]c(C2OC(COP(=O)(O)CP(=O)(O)OCC3OC(n4cnc5c(N)ncnc54)C(O)C3O)C(O)C2O)n1 (configuration not stated) | > 100 µM (inactive) | > 100 µM (inactive) | > 100 µM (inactive) | > 100 µM (inactive) | 72.8 µM (inactive) | 93.1 µM (inactive) | 43.3 µM (inactive) | > 100 µM (inactive) | 52.1 µM (inactive) | > 100 µM (inactive) | > 100 µM (inactive) | > 100 µM (inactive) |  | > 100 µM (inactive) | 64.3 µM (inactive) | 53.2 µM (inactive) |
| COC(=O)Cc1c([C@@]2(C)CCCC(C)(C)C2)ccc2c1C(=O)OC2 |  | 5.04 µM (inactive) |  | 5.25 µM (inactive) | 10.5 µM (inactive) | 6.7 µM (inactive) | > 10 µM (inactive) |  | 5.64 µM (inactive) |  | 15.6 µM (inactive) | 3.58 µM (inactive) | 2.7 µM (inactive) | 17.9 µM (inactive) | 11.7 µM (inactive) | 10.8 µM (inactive) |
| CC(C)CC(NC(=O)c1cccc(O)c1O)C(=O)NCc1cc(CNC(=O)C(CC(C)C)NC(=O)c2cccc(O)c2O)cc(CNC(=O)C(CC(C)C)NC(=O)c2cccc(O)c2O)c1 (configuration not stated) | 10.8 µM (inactive) | 3.92 µM (inactive) | 13.9 µM (inactive) | 4.33 µM (inactive) |  | 16.6 µM (inactive) | 46.3 µM (inactive) | 7.05 µM (inactive) | 15.9 µM (inactive) | 13.6 µM (inactive) | 5.47 µM (inactive) | 12.3 µM (inactive) | 4.14 µM (inactive) | 19.6 µM (inactive) | 22.2 µM (inactive) | 13.3 µM (inactive) |
| O=[N+]([O-])c1ccc(C[P+]2(c3ccccc3)CCCCC2)cc1.[O-][Cl+3]([O-])([O-])[O-] | > 100 µM (inactive) | > 100 µM (inactive) |  | > 100 µM (inactive) | > 100 µM (inactive) | > 100 µM (inactive) |  | > 100 µM (inactive) | > 100 µM (inactive) | > 100 µM (inactive) | > 100 µM (inactive) | > 100 µM (inactive) | > 100 µM (inactive) | > 100 µM (inactive) | > 100 µM (inactive) | > 100 µM (inactive) |
| N#C/C(=C(/S)Nc1ccccc1)c1nc2ccccc2[nH]1 | > 10 µM (inactive) | > 10 µM (inactive) | > 10 µM (inactive) | > 10 µM (inactive) | > 10 µM (inactive) | > 10 µM (inactive) | > 10 µM (inactive) | > 10 µM (inactive) | > 10 µM (inactive) | > 10 µM (inactive) | > 10 µM (inactive) | > 10 µM (inactive) | > 10 µM (inactive) | > 10 µM (inactive) | > 10 µM (inactive) |  |

From ChEMBL document CHEMBL1201862, “PubChem BioAssay data set” (2004)
